The values below come from ChEMBL document CHEMBL5725498, “ROR modulators and their uses” (2017).

pIC50: −log10 of the molar value. Some results are limits rather than exact numbers.

A short description of assay [1]: TH17 Cytokine Inhibition ELISA: Human CD4+ T cells were differentiated to TH17 cells as described in the presence or absence of various concentrations of compounds in a final concentration of 0.1% DMSO in TexMACS medium. Supernatants were collected and stored at −20° C. until they were to be assayed for IL-17A, IL-17F, IL-17AF, IL-21 and/or IL-22 levels as determined by Ready-Set-Go ELISA kits (eBioscience) as per manufacturer's instructions. Endpoint absorbance was read at 450 nm and 570 nm according to manufacturer's instructions (eBioscience) using a microplate reader (Perkin Elmer). The percentage of cytokine inhibition was calculated with reference to DMSO treated cells and the IC50s were determined by GraphPad Prism software and presented in the table below.

Assay [2] deals with T1, Nuclear receptor ROR-gamma (Homo sapiens, UniProt P51449).
T1 sequence (P51449 whole entry): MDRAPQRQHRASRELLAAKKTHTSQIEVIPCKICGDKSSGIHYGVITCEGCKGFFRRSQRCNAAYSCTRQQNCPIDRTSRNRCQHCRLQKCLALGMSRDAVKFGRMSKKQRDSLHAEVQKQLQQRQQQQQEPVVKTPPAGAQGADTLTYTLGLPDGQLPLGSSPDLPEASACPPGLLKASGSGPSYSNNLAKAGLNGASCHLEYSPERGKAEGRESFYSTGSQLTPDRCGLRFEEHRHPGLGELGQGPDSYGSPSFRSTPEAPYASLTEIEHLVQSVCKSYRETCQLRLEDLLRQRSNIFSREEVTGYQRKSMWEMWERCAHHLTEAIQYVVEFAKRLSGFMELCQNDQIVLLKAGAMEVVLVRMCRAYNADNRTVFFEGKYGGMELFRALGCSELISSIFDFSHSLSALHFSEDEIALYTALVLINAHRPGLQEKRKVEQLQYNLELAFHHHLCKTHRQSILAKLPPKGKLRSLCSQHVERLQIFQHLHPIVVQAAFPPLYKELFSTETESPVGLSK
The assay is described as follows: RORgamma LBD Binding Assay: Compound binding to the human RORγ LBD was assessed using the Human RORγ Assay System (INDIGO Biosciences Inc.) as per manufacturer's instructions. Binding to the RORγ LBD was assessed using gradient concentrations of the indicated compounds in a final concentration of 0.5% DMSO, where IC50s were generated using Graphpad Prism.

Turning to `OC(c1ccc(CBr)cc1)(C(F)(F)F)C(F)(F)F`, the pIC50 – broadly, the negative decadic logarithm of the IC50, by convention in mol/L – in assay [1] is greater than 5.00. Same read-out and setting: next, `CN(C)C(=O)c1ccc2c(ccc(=O)n2Cc2ccc(C(O)(C(F)(F)F)C(F)(F)F)cc2)c1`: greater than 5.00. As to `CN(C)C(=O)c1ccc2c(c1)CCC(=O)N2Cc1ccc(C(O)(C(F)(F)F)C(F)(F)F)cc1`, the pIC50 was less than 5.00 in assay [1] and greater than 5.00 in assay [2].
